Results reported in US9676789B2, “Aminated derivative of homoharringtonine, preparation method therefor, and application thereof” (HANGZHOU BENSHENG PHARMACEUTICAL CO., LTD., priority 2011, dated 2017).
Converted amounts (≈) assume the structure as drawn.

Tests used:
[1] = tested on: Jurkat (acute lymphoblastic leukemia, ALL); assay: MTT leukemia cell growth inhibition, 72 h; format: cell-based, human; conditions: Homo sapiens; for IC50: read-out: IC50; for IC90: read-out: IC90
Source text: (§1) Leukemia cell lines: K562/adr (drug-resistant, chronic myeloid leukemia, CML), NB4 (acute promyelocytic leukemia, AML), Kasumi-1 (acute myeloid leukemia M2 type, AML-M2), Jurkat (acute lymphoblastic leukemia, ALL), all of which are donated by Cancer Research Institute of Zhejiang University, China; and H9 (acute lymphoblastic leukemia, ALL), which is purchased from China Center for Type Culture Collection.
(§2) Obtaining 6000 well-growing leukemia cells and inoculating them into wells of a 96-well cell culture plate. The culture medium is the 1640 cell culture medium containing 10% fetal bovine serum. After adding the homoharringtonine derivatives of different concentrations and mixing uniformly, placing the plate in a carbon dioxide cell incubator (5% CO2) at 37° C. and incubating for 72 hours. Then the viable cell concentration is determined by the MTT method. In this experiment, the cell viability in control group (not treated with any compound) is set as 100%.

[2] = tested on: NB4 (acute promyelocytic leukemia, AML); assay: MTT leukemia cell growth inhibition, 72 h; format: cell-based, human; conditions: Homo sapiens, NB4, 72 h; for IC50: read-out: IC50; for IC90: read-out: IC90
Source text: as §1, §2

[3] = tested on: H9 (acute lymphoblastic leukemia, ALL); assay: MTT leukemia cell growth inhibition, 72 h; format: cell-based, human; conditions: Homo sapiens, H9, 72 h; for IC50: read-out: IC50; for IC90: read-out: IC90
Source text: as §1, §2

[4] = tested on: K562/adr (drug-resistant, chronic myeloid leukemia, CML); assay: MTT leukemia cell growth inhibition, 72 h; format: cell-based, human; conditions: Homo sapiens, K562/Adr; for IC50: read-out: IC50; for IC90: read-out: IC90
Source text: as §1, §2

[5] = tested on: Kasumi-1 (acute myeloid leukemia M2 type, AML-M2); assay: MTT leukemia cell growth inhibition, 72 h; format: cell-based, human; conditions: Homo sapiens, Kasumi-1, 72 h; for IC50: read-out: IC50; for IC90: read-out: IC90
Source text: as §1, §2

[6] = tested on: Huh7 (human liver cancer cell); assay: MTT solid tumor cell growth inhibition, 72 h; format: cell-based; conditions: Homo sapiens, Huh-7, Huh7, 72 h; for IC50: read-out: IC50; for IC90: read-out: IC90
Procedure: (§3) Human solid tumor cell lines: Hep-2 ([…]), A549 (human lung cancer), CaES-17 (esophageal cancer cell), PC-3 (prostate cancer), CNE (nasopharyngeal carcinoma cell), and SK-OV-3 (ovarian cancer cell), all of which are purchased from China Center For Type Culture Collection; RKO (human colon adenocarcinoma cell), MGC 803 (human gastric cancer cell), MG63 (osteosarcoma) and U87 MG (malignant glioma cell), all of which are purchased from Fuxiang Bio-tech Co. Ltd., Shanghai, China; PANC-1 (pancreatic cancer), Huh7 (human liver cancer cell), Becap37 (human breast cancer cell), and Hela (human cervical cancer cell), all of which are donated by Cancer Research Institute of Zhejiang University, China.
(§4) Obtaining 4000 well-growing human solid tumor cells and inoculating them into wells of a 96-well cell culture plate. The culture medium is DMEM High Glucose cell culture medium containing 10% fetal bovine serum. The plate is placed in a carbon dioxide cell incubator (5% CO2) at 37° C. and incubating for 24 hours. After adding the homoharringtonine derivatives of different concentration and mixing uniformly, the plate is placed in a carbon dioxide cell incubator (5% CO2) at 37° C. and incubating for 72 hours. Then the viable cell concentration is determined by the MTT method and the cell viability (%) after drug treatment is calculated. In this experiment, the cell viability of control group (not treated with any compound) is set as 100%.

[7] = tested on: Hep-2 (human hepatocellular carcinoma); assay: MTT solid tumor cell growth inhibition, 72 h; format: cell-based; conditions: Homo sapiens, HEp-2, Hep2, 72 h; for IC50: read-out: IC50; for IC90: read-out: IC90
Procedure: as §3, §4

A549 (human lung cancer) = assay: MTT solid tumor cell growth inhibition, 72 h; format: cell-based; conditions: Homo sapiens, A549, 72 h; for IC50: read-out: IC50; for IC90: read-out: IC90
Procedure: as §3, §4

[8] = tested on: Becap37 (human breast cancer cell); assay: MTT solid tumor cell growth inhibition, 72 h; format: cell-based; conditions: Homo sapiens, Becap37, 72 h; for IC50: read-out: IC50; for IC90: read-out: IC90
Procedure: as §3, §4

[9] = tested on: MGC 803 (human gastric cancer cell); assay: MTT solid tumor cell growth inhibition, 72 h; format: cell-based; conditions: Homo sapiens, MGC 803, 72 h; for IC50: read-out: IC50; for IC90: read-out: IC90
Procedure: as §3, §4

[10] = tested on: Hela (human cervical cancer cell); assay: MTT solid tumor cell growth inhibition, 72 h; format: cell-based; conditions: Homo sapiens, HeLa; for IC50: read-out: IC50; for IC90: read-out: IC90
Procedure: as §3, §4

[11] = tested on: RKO (human colon adenocarcinoma cell); assay: MTT solid tumor cell growth inhibition, 72 h; format: cell-based; conditions: Homo sapiens; for IC50: read-out: IC50; for IC90: read-out: IC90
Procedure: as §3, §4

[12] = tested on: RPMI8226 (multiple myeloma); assay: MTT multiple myeloma cell growth inhibition, 72 h; format: cell-based, human; conditions: Homo sapiens, RPMI-8226, RPMI8226, 72 h; for IC50: read-out: IC50; for IC90: read-out: IC90
Procedure: Multiple myeloma and lymphoma cell lines: RPMI8226 (multiple myeloma), purchased from Fuxiang Bio-tech Co. Ltd., Shanghai, China.
as §2, with “method.” for “method. In this experiment, the cell viability in control group (not treated with any compound) is set as 100%.”

[13] = tested on: SK-OV-3 (ovarian cancer cell); assay: MTT solid tumor cell growth inhibition, 72 h; format: cell-based, human; conditions: Homo sapiens, SK-OV-3, 72 h; for IC50: read-out: IC50; for IC90: read-out: IC90
Procedure: as §3, §4

[14] = tested on: CNE (nasopharyngeal carcinoma cell); assay: MTT solid tumor cell growth inhibition, 72 h; format: cell-based, human; conditions: Homo sapiens; for IC50: read-out: IC50; for IC90: read-out: IC90
Procedure: as §3, §4

MG63 (osteosarcoma) = assay: MTT solid tumor cell growth inhibition, 72 h; format: cell-based, human; conditions: Homo sapiens, MG 63, 72 h; for IC50: read-out: IC50; for IC90: read-out: IC90
Procedure: as §3, §4

[15] = tested on: U87 MG (malignant glioma cell); assay: MTT solid tumor cell growth inhibition, 72 h; format: cell-based, human; conditions: Homo sapiens, U-87 MG; for IC50: read-out: IC50; for IC90: read-out: IC90
Procedure: as §3, §4

PC-3 (prostate cancer) = assay: MTT solid tumor cell growth inhibition, 72 h; format: cell-based, human; conditions: Homo sapiens, PC-3, 72 h; for IC50: read-out: IC50; for IC90: read-out: IC90
Procedure: as §3, §4

[16] = tested on: PANC-1 (pancreatic cancer); assay: MTT solid tumor cell growth inhibition, 72 h; format: cell-based, human; conditions: Homo sapiens, PANC-1, 72 h; for IC50: read-out: IC50; for IC90: read-out: IC90
Procedure: as §3, §4

[17] = tested on: CaES-17 (esophageal cancer cell); assay: MTT solid tumor cell growth inhibition, 72 h; format: cell-based, human; conditions: Homo sapiens, CaEs17, CaES-17, 72 h; for IC50: read-out: IC50; for IC90: read-out: IC90
Procedure: as §3, §4

SMILES	IC50 [1]	IC90 [1]	IC50 [2]	IC90 [2]	IC50 [3]	IC90 [3]	IC50 [4]	IC90 [4]	IC50 [5]	IC90 [5]	IC50 [6]	IC90 [6]	IC50 [7]	IC90 [7]	IC50 (A549 (human lung cancer))	IC90 (A549 (human lung cancer))	IC50 [8]	IC90 [8]	IC50 [9]	IC90 [9]	other results
COC1=C[C@]23CCCN2CCc2cc4c(cc2[C@@H]3[C@@H]1OC(=O)[C@@](O)(CCCC(C)(C)O)CC(=O)N1CCN(c2ccccn2)CC1)OCO4 [BS-HH-044]	0.48 µg/mL (≈ 0.709 µM)	16 µg/mL (≈ 23.6 µM)	0.25 µg/mL (≈ 0.369 µM)	0.64 µg/mL (≈ 0.946 µM)	1.41 µg/mL (≈ 2.08 µM)	16 µg/mL (≈ 23.6 µM)	5.18 µg/mL (≈ 7.65 µM)	16 µg/mL (≈ 23.6 µM)	0.38 µg/mL (≈ 0.561 µM)	2.25 µg/mL (≈ 3.32 µM)	0.94 µg/mL (≈ 1.39 µM)	> 16 µg/mL	1.23 µg/mL (≈ 1.82 µM)	> 16 µg/mL	1.76 µg/mL (≈ 2.6 µM)	> 16 µg/mL	0.71 µg/mL (≈ 1.05 µM)	> 16 µg/mL	0.74 µg/mL (≈ 1.09 µM)	> 16 µg/mL	IC50 [10]: 1.91 µg/mL (≈ 2.82 µM); IC90 [10]: > 16 µg/mL; IC50 [11]: 0.16 µg/mL (≈ 0.236 µM); IC90 [11]: 2.37 µg/mL (≈ 3.5 µM); IC50 [12]: 0.48 µg/mL (≈ 0.709 µM); IC90 [12]: 3.36 µg/mL (≈ 4.96 µM); IC50 [13]: 3.97 µg/mL (≈ 5.87 µM); IC90 [13]: > 16 µg/mL; IC50 [14]: 0.76 µg/mL (≈ 1.12 µM); IC90 [14]: > 16 µg/mL; IC50 (MG63 (osteosarcoma)): 0.8 µg/mL (≈ 1.18 µM); IC90 (MG63 (osteosarcoma)): > 16 µg/mL; IC50 [15]: 0.64 µg/mL (≈ 0.946 µM); IC90 [15]: 16 µg/mL (≈ 23.6 µM); IC50 (PC-3 (prostate cancer)): 0.78 µg/mL (≈ 1.15 µM); IC90 (PC-3 (prostate cancer)): > 16 µg/mL; IC50 [16]: 1.91 µg/mL (≈ 2.82 µM); IC90 [16]: > 16 µg/mL; IC50 [17]: 1.63 µg/mL (≈ 2.41 µM); IC90 [17]: 16 µg/mL (≈ 23.6 µM)
COC(=O)C[C@](O)(CCCC(C)(C)O)C(=O)O[C@@H]1C(OC)=C[C@]23CCCN2CCc2cc4c(cc2[C@H]13)OCO4 [HHT, O-3-[(2R)-2,6-dihydroxy-2-(2′-methoxy-2′-oxoethyl)-6-methylheptanoyl]cephalotaxine, reference compound]	0.007 µg/mL (≈ 0.0128 µM)	16 µg/mL (≈ 29.3 µM)	0.006 µg/mL (≈ 0.011 µM)	0.012 µg/mL (≈ 0.022 µM)	0.02 µg/mL (≈ 0.0367 µM)	0.046 µg/mL (≈ 0.0843 µM)	0.035 µg/mL (≈ 0.0641 µM)	0.98 µg/mL (≈ 1.8 µM)	0.005 µg/mL (≈ 0.00916 µM)	0.024 µg/mL (≈ 0.044 µM)	0.004 µg/mL (≈ 0.00733 µM)	0.049 µg/mL (≈ 0.0898 µM)	0.014 µg/mL (≈ 0.0257 µM)	> 16 µg/mL	0.03 µg/mL (≈ 0.055 µM)	> 16 µg/mL	0.01 µg/mL (≈ 0.0183 µM)	11.6 µg/mL (≈ 21.2 µM)	0.016 µg/mL (≈ 0.0293 µM)	0.2 µg/mL (≈ 0.367 µM)	IC50 [10]: 0.019 µg/mL (≈ 0.0348 µM); IC90 [10]: 16 µg/mL (≈ 29.3 µM); IC50 [11]: 0.003 µg/mL (≈ 0.0055 µM); IC90 [11]: 0.009 µg/mL (≈ 0.0165 µM); IC50 [12]: 0.006 µg/mL (≈ 0.011 µM); IC90 [12]: 0.027 µg/mL (≈ 0.0495 µM); IC50 [13]: 0.003 µg/mL (≈ 0.0055 µM); IC90 [13]: 0.009 µg/mL (≈ 0.0165 µM); IC50 [14]: 0.038 µg/mL (≈ 0.0696 µM); IC90 [14]: > 16 µg/mL; IC50 (MG63 (osteosarcoma)): 0.01 µg/mL (≈ 0.0183 µM); IC90 (MG63 (osteosarcoma)): 1.2 µg/mL (≈ 2.2 µM); IC50 [15]: 0.004 µg/mL (≈ 0.00733 µM); IC90 [15]: 0.018 µg/mL (≈ 0.033 µM); IC50 (PC-3 (prostate cancer)): 0.004 µg/mL (≈ 0.00733 µM); IC90 (PC-3 (prostate cancer)): 0.049 µg/mL (≈ 0.0898 µM); IC50 [16]: 0.035 µg/mL (≈ 0.0641 µM); IC90 [16]: > 16 µg/mL; IC50 [17]: 0.037 µg/mL (≈ 0.0678 µM); IC90 [17]: > 16 µg/mL
